Several values for one entry are separate records, joined by “and”; a condition that tells them apart may be missing. Equal values may be shown once. Activity calls are given as the source filed them. How the source made its calls: active means viability on the fitted dose curve at most 10% of control; inactive means the rest.
Tested on: NCI-H841 complex tumor spheroid viability
Experiment: Anticancer human tumor NCI-H841 cell line growth inhibition;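 on IC50: spheroids exposed to compounds for 7 days before readout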;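 on viability, T/C: spheroids exposed to compounds for 7 days before readout; 100% = DMSO vehicle control wells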
Conditions: for viability, T/C: stronger effect = lower value
In short: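 Complex tumor spheroids combined malignant cells with endothelial cells and mesenchymal stem cells. DNA-damaging drugs and DNA repair inhibitors were tested alone and in combination, at half-log dilutions down from clinical Cmax (top 10 microM if Cmax unknown), 0.25% DMSO final.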

[1] = curve of first compound, second compound 0.003 µM
[2] = curve of first compound, second compound 0.00949 µM
[3] = curve of first compound, second compound 0.03 µM
[4] = curve of first compound, second compound 0.0949 µM
[5] = curve of first compound, second compound 0.3 µM
[6] = second compound 0.003 µM, first compound 0.0316 µM
[7] = second compound 0.003 µM, first compound 0.1 µM
[8] = second compound 0.003 µM, first compound 0.316 µM
[9] = second compound 0.003 µM, first compound 1 µM
[10] = second compound 0.003 µM, first compound 3.16 µM
[11] = second compound 0.003 µM, first compound 10 µM
[12] = second compound 0.00949 µM, first compound 0.0316 µM
[13] = second compound 0.00949 µM, first compound 0.1 µM
[14] = second compound 0.00949 µM, first compound 0.316 µM
[15] = second compound 0.00949 µM, first compound 1 µM
[16] = second compound 0.00949 µM, first compound 3.16 µM
[17] = second compound 0.00949 µM, first compound 10 µM
[18] = second compound 0.03 µM, first compound 0.0316 µM
[19] = second compound 0.03 µM, first compound 0.1 µM
[20] = second compound 0.03 µM, first compound 0.316 µM
[21] = second compound 0.03 µM, first compound 1 µM
[22] = second compound 0.03 µM, first compound 3.16 µM
[23] = second compound 0.03 µM, first compound 10 µM
[24] = second compound 0.0949 µM, first compound 0.0316 µM
[25] = second compound 0.0949 µM, first compound 0.1 µM
[26] = second compound 0.0949 µM, first compound 0.316 µM
[27] = second compound 0.0949 µM, first compound 1 µM
[28] = second compound 0.0949 µM, first compound 3.16 µM
[29] = second compound 0.0949 µM, first compound 10 µM
[30] = second compound 0.3 µM, first compound 0.0316 µM
[31] = second compound 0.3 µM, first compound 0.1 µM
[32] = second compound 0.3 µM, first compound 0.316 µM
[33] = second compound 0.3 µM, first compound 1 µM
[34] = second compound 0.3 µM, first compound 3.16 µM
[35] = second compound 0.3 µM, first compound 10 µM

Cn1ncnc1[C@H]1c2n[nH]c(=O)c3cc(F)cc(c23)N[C@@H]1c1ccc(F)cc1 + CC[C@@]1(O)C(=O)OCc2c1cc1n(c2=O)Cc2cc3c(CN(C)C)c(O)ccc3nc2-1
inactive: viability, T/C (second compound 0.003 µM, first compound 0.00949 µM) 47.7% | viability, T/C (second compound 0.003 µM, first compound 0.03 µM) 40.1% | viability, T/C (second compound 0.003 µM, first compound 0.0949 µM) 29.9% | viability, T/C (second compound 0.003 µM, first compound 0.3 µM) 8.52%
active: viability, T/C (second compound 0.003 µM, first compound 0.949 µM) 1.44% | viability, T/C (second compound 0.003 µM, first compound 3 µM) 1.96% | viability, T/C (second compound 0.00949 µM, first compound 0.00949 µM) 5.87% | viability, T/C (second compound 0.00949 µM, first compound 0.03 µM) 2.75% | viability, T/C (second compound 0.00949 µM, first compound 0.0949 µM) 2.55% | viability, T/C (second compound 0.00949 µM, first compound 0.3 µM) 1.48% | viability, T/C (second compound 0.00949 µM, first compound 0.949 µM) 1.52% | viability, T/C (second compound 0.00949 µM, first compound 3 µM) 2.21% | viability, T/C (second compound 0.03 µM, first compound 0.00949 µM) 1.67% | viability, T/C (second compound 0.03 µM, first compound 0.03 µM) 1.74% | viability, T/C (second compound 0.03 µM, first compound 0.0949 µM) 1.39% | viability, T/C (second compound 0.03 µM, first compound 0.3 µM) 1.4% | viability, T/C (second compound 0.03 µM, first compound 0.949 µM) 1.41% | viability, T/C (second compound 0.03 µM, first compound 3 µM) 1.81% | viability, T/C (second compound 0.0949 µM, first compound 0.00949 µM) 1.86% | viability, T/C (second compound 0.0949 µM, first compound 0.03 µM) 1.68% | viability, T/C (second compound 0.0949 µM, first compound 0.0949 µM) 1.61% | viability, T/C (second compound 0.0949 µM, first compound 0.3 µM) 1.69% | viability, T/C (second compound 0.0949 µM, first compound 0.949 µM) 1.52% | viability, T/C (second compound 0.0949 µM, first compound 3 µM) 1.31% | viability, T/C (second compound 0.3 µM, first compound 0.00949 µM) 0.97% | viability, T/C (second compound 0.3 µM, first compound 0.03 µM) 0.99% | viability, T/C (second compound 0.3 µM, first compound 0.0949 µM) 0.94% | viability, T/C (second compound 0.3 µM, first compound 0.3 µM) 0.9% | viability, T/C (second compound 0.3 µM, first compound 0.949 µM) 0.63% | viability, T/C (second compound 0.3 µM, first compound 3 µM) 0.52%
< 0.00949 µM: IC50 [1] | IC50 [2] | IC50 [3] | IC50 [4] | IC50 [5]

CNCc1ccc(-c2cc(-c3nc(-c4ccc(S(=O)(=O)C(C)C)cc4)cnc3N)on2)cc1
0.066 µM and 0.179 µM and 0.4 µM: IC50 (curve of compound)
inactive: viability, T/C (compound 0.00949 µM) 100% (2×) and 97.3% | viability, T/C (compound 0.03 µM) 94.6% and 98.1% and 99.8% | viability, T/C (compound 0.0949 µM) 28.9% and 81.8% and 95.3% | viability, T/C (compound 0.3 µM) 25.2% and 24% and 63.7%
3.17% and 1.05% and 2.03%: viability, T/C (compound 3 µM)
6.79% and 3.39% and 9.67%: viability, T/C (compound 0.949 µM)

CC[C@@]1(O)C(=O)OCc2c1cc1n(c2=O)Cc2cc3c(CN(C)C)c(O)ccc3nc2-1
15.8 nM [middle of 4 runs]: IC50 (compound alone, run of 12/16/2019)
12 nM [middle of 5 runs]: IC50 (compound alone, run of 11/07/2019)
active: viability, T/C (compound 0.03 µM) 2.24% [middle of 10 runs] | viability, T/C (compound 0.0949 µM) 1.86% [middle of 10 runs] | viability, T/C (compound 0.3 µM) 1.86% [middle of 10 runs]
inactive: viability, T/C (compound 0.003 µM) 98.1% [middle of 10 runs]

CC(C)n1c(=O)n(C)c2cnc3cc(F)c(-c4ccc(OCCCN5CCCCC5)nc4)cc3c21 + Cn1nnc2c(C(N)=O)ncn2c1=O
8.52 µM: IC50 (curve of first compound, second compound 31.6 µM)
3.91 µM: IC50 (curve of first compound, second compound 100 µM)
> 10 µM: IC50 (curve of first compound, second compound 1 µM) | IC50 (curve of first compound, second compound 3.16 µM) | IC50 (curve of first compound, second compound 10 µM)
inactive: viability, T/C (second compound 1 µM, first compound 0.0316 µM) 91.3% | viability, T/C (second compound 1 µM, first compound 0.1 µM) 93.5% | viability, T/C (second compound 1 µM, first compound 0.316 µM) 95.3% | viability, T/C (second compound 1 µM, first compound 1 µM) 92.3% | viability, T/C (second compound 1 µM, first compound 3.16 µM) 85.8% | viability, T/C (second compound 1 µM, first compound 10 µM) 57.5% | viability, T/C (second compound 3.16 µM, first compound 0.0316 µM) 94.5% | viability, T/C (second compound 3.16 µM, first compound 0.1 µM) 96.1% | viability, T/C (second compound 3.16 µM, first compound 0.316 µM) 99.9% | viability, T/C (second compound 3.16 µM, first compound 1 µM) 90.5% | viability, T/C (second compound 3.16 µM, first compound 3.16 µM) 89.3% | viability, T/C (second compound 3.16 µM, first compound 10 µM) 77.4% | viability, T/C (second compound 10 µM, first compound 0.0316 µM) 93.1% | viability, T/C (second compound 10 µM, first compound 0.1 µM) 94.1% | viability, T/C (second compound 10 µM, first compound 0.316 µM) 94.8% | outcome (second compound 10 µM, first compound 1 µM) | viability, T/C (second compound 10 µM, first compound 3.16 µM) 88% | viability, T/C (second compound 10 µM, first compound 10 µM) 62.4% | viability, T/C (second compound 31.6 µM, first compound 0.0316 µM) 91% | viability, T/C (second compound 31.6 µM, first compound 0.1 µM) 92.2% | viability, T/C (second compound 31.6 µM, first compound 0.316 µM) 87.9% | viability, T/C (second compound 31.6 µM, first compound 1 µM) 88.4% | viability, T/C (second compound 31.6 µM, first compound 3.16 µM) 76.2% | viability, T/C (second compound 31.6 µM, first compound 10 µM) 45.8% | viability, T/C (second compound 100 µM, first compound 0.0316 µM) 84.4% | viability, T/C (second compound 100 µM, first compound 0.1 µM) 82.8% | viability, T/C (second compound 100 µM, first compound 0.316 µM) 77.9% | viability, T/C (second compound 100 µM, first compound 1 µM) 75.9% | viability, T/C (second compound 100 µM, first compound 3.16 µM) 52.9% | viability, T/C (second compound 100 µM, first compound 10 µM) 35.5%

CC(C)n1c(=O)n(C)c2cnc3cc(F)c(-c4ccc(OCCCN5CCCCC5)nc4)cc3c21 + CC[C@@]1(O)C(=O)OCc2c1cc1n(c2=O)Cc2cc3c(CN(C)C)c(O)ccc3nc2-1
active: viability, T/C [12] 4.68% | viability, T/C [13] 4.13% | viability, T/C [14] 6.57% | viability, T/C [15] 6.6% | viability, T/C [16] 10.3% | viability, T/C [17] 7.04% | viability, T/C [18] 1.24% | viability, T/C [19] 1.19% | viability, T/C [20] 1.09% | viability, T/C [21] 1.3% | viability, T/C [22] 1.9% | viability, T/C [23] 2.19% | viability, T/C [24] 2.12% | viability, T/C [25] 1.53% | viability, T/C [26] 1.21% | viability, T/C [27] 1.06% | viability, T/C [28] 1.07% | viability, T/C [29] 1.41% | viability, T/C [30] 2.29% | viability, T/C [31] 2.08% | viability, T/C [32] 1.55% | viability, T/C [33] 0.71% | viability, T/C [34] 0.65% | viability, T/C [35] 0.78%
inactive: viability, T/C [6] 47% | viability, T/C [7] 51.3% | viability, T/C [8] 56.6% | viability, T/C [9] 63.5% | viability, T/C [10] 65.1% | viability, T/C [11] 43.2%
< 0.0316 µM: IC50 [1] | IC50 [2] | IC50 [3] | IC50 [4] | IC50 [5]

Cc1cc(C)c(CNC(=O)c2cc(-c3ccc(CN4CCOCC4)cc3)cc3c2cnn3C2CCCC2)c(=O)[nH]1 + CC[C@@]1(O)C(=O)OCc2c1cc1n(c2=O)Cc2cc3c(CN(C)C)c(O)ccc3nc2-1
0.713 µM: IC50 [2]
inactive: viability, T/C [6] 93.6% | viability, T/C [7] 94.4% | viability, T/C [8] 91.9% | viability, T/C [9] 83.5% | viability, T/C [10] 65.2% | viability, T/C [11] 34.7% | viability, T/C [12] 69.6% | viability, T/C [13] 60.8% | viability, T/C [14] 63.4% | viability, T/C [15] 44.7% | viability, T/C [16] 21.7% | viability, T/C [17] 9.9%
5.6 µM: IC50 [1]
active: viability, T/C [18] 2.88% | viability, T/C [19] 2.59% | viability, T/C [20] 2.6% | viability, T/C [21] 1.45% | viability, T/C [22] 1.14% | viability, T/C [23] 1.49% | viability, T/C [24] 1.83% | viability, T/C [25] 1.47% | viability, T/C [26] 1.42% | viability, T/C [27] 1.4% | viability, T/C [28] 1.41% | viability, T/C [29] 1.58% | viability, T/C [30] 7.2% | viability, T/C [31] 1.62% | viability, T/C [32] 1.88% | viability, T/C [33] 1.53% | viability, T/C [34] 1.17% | viability, T/C [35] 4.17%
< 0.0316 µM: IC50 [3] | IC50 [4] | IC50 [5]
